Measured values taken from ChEMBL document CHEMBL1909046, “DrugMatrix in vitro pharmacology data”.

The compounds below were run against T1, Alpha-1A adrenergic receptor (Rattus norvegicus, UniProt P43140) (assay: DRUGMATRIX: Alpha-1A adrenergic receptor radioligand binding (ligand: prazosin)). Conditions: Not Active = under 50% inhibition at 10 µM.
T1 sequence (P43140 whole entry): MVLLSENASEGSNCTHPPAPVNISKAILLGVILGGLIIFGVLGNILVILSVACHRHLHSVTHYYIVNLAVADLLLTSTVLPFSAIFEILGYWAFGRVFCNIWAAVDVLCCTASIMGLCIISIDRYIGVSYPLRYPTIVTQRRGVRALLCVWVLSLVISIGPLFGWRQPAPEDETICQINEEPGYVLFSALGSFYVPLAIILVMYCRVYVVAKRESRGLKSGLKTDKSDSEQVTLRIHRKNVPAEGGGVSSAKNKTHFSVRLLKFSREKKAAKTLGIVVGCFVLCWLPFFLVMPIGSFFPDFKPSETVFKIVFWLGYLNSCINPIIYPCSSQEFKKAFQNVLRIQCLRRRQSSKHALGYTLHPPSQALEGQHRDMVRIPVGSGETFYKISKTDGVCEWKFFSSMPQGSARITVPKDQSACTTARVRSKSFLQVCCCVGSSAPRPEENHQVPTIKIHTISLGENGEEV
Type: cell membranes, Wistar, Submaxillary gland, Membrane

Compound | IC50 | Ki
O=C1C[C@@H]2OCC=C3CN4CC[C@]56c7ccccc7N1[C@H]5[C@H]2[C@H]3C[C@H]46 [STRYCHNINE] | Not Active | 
C[N+](C)(C)CCOC(=O)CCC(=O)OCC[N+](C)(C)C.[Cl-].[Cl-] [SUCCINYLCHOLINE CHLORIDE] | Not Active | 
Nc1ccc(S(=O)(=O)NC(=O)c2ccccc2)cc1 [SULFABENZAMIDE] | Not Active | 
CCCCCCCCNC(C)C(O)c1ccc(SC(C)C)cc1 (centres undefined) [SULOCTIDIL] | Not Active | 
O=c1[nH]c(=O)n(C2CCCO2)cc1F (centres undefined) [TEGAFUR] | Not Active | 
CC(=N)S [THIOACETAMIDE] | Not Active | 
Cc1ccc(C(=O)c2ccc(CC(=O)O)n2C)cc1 [TOLMETIN] | Not Active | 
CC(=O)OCC(COC(C)=O)OC(C)=O [TRIACETIN] | Not Active | 
CN1CCN(CCCN2c3ccccc3Sc3ccc(C(F)(F)F)cc32)CC1 [TRIFLUOPERAZINE] | Not Active | 
TRANSPLATIN | Not Active | Not Active
ZIRCONIUM(IV) CHLORIDE | Not Active | Not Active

The compounds below were run against T2, Calcitonin receptor (Homo sapiens, UniProt P30988). Conditions: t47d.
T2 sequence (P30988 whole entry): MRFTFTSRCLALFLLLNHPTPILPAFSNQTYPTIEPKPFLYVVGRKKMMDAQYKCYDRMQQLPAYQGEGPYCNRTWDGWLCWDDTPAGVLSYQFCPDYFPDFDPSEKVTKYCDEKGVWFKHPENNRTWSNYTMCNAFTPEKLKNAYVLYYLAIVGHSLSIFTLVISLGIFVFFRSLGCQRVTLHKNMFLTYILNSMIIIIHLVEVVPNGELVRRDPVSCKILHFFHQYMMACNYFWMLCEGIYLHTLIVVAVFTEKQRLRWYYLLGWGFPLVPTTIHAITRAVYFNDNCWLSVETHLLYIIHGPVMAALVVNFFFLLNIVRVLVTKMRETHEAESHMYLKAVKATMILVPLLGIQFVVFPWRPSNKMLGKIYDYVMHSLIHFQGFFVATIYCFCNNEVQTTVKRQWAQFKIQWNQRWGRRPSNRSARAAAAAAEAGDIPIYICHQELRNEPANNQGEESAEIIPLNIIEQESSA
Type: cell membranes, Membrane

Compound | IC50 | Ki
O=C1C[C@@H]2OCC=C3CN4CC[C@]56c7ccccc7N1[C@H]5[C@H]2[C@H]3C[C@H]46 [STRYCHNINE] | Not Active | 
C[N+](C)(C)CCOC(=O)CCC(=O)OCC[N+](C)(C)C.[Cl-].[Cl-] [SUCCINYLCHOLINE CHLORIDE] | Not Active | 
Nc1ccc(S(=O)(=O)NC(=O)c2ccccc2)cc1 [SULFABENZAMIDE] | Not Active | 
CCCCCCCCNC(C)C(O)c1ccc(SC(C)C)cc1 (centres undefined) [SULOCTIDIL] | Not Active | 
O=c1[nH]c(=O)n(C2CCCO2)cc1F (centres undefined) [TEGAFUR] | Not Active | 
CC(=N)S [THIOACETAMIDE] | Not Active | 
Cc1ccc(C(=O)c2ccc(CC(=O)O)n2C)cc1 [TOLMETIN] | Not Active | 
CC(=O)OCC(COC(C)=O)OC(C)=O [TRIACETIN] | Not Active | 
CN1CCN(CCCN2c3ccccc3Sc3ccc(C(F)(F)F)cc32)CC1 [TRIFLUOPERAZINE] | Not Active | 
TRANSPLATIN | Not Active | Not Active
ZIRCONIUM(IV) CHLORIDE | Not Active | Not Active

Each compound was assayed against T3, Vasoactive intestinal polypeptide receptor 1 (Homo sapiens, UniProt P32241). Conditions: ht-29.
T3 sequence (P32241 whole entry): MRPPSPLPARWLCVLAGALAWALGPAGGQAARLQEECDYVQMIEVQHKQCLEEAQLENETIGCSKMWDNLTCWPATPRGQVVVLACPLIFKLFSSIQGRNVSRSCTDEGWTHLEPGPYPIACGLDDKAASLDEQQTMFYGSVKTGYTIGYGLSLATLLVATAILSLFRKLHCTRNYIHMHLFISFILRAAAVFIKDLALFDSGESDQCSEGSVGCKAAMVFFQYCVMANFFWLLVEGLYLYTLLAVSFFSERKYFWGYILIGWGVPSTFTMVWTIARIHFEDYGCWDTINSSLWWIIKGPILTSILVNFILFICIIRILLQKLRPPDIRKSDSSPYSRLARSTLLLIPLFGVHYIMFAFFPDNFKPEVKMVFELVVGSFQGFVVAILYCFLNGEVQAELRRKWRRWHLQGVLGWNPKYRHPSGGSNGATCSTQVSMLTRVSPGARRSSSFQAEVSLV
Type: cell membranes, Membrane

Compound | IC50 | Ki
O=C1C[C@@H]2OCC=C3CN4CC[C@]56c7ccccc7N1[C@H]5[C@H]2[C@H]3C[C@H]46 [STRYCHNINE] | Not Active | 
C[N+](C)(C)CCOC(=O)CCC(=O)OCC[N+](C)(C)C.[Cl-].[Cl-] [SUCCINYLCHOLINE CHLORIDE] | Not Active | 
Nc1ccc(S(=O)(=O)NC(=O)c2ccccc2)cc1 [SULFABENZAMIDE] | Not Active | 
CCCCCCCCNC(C)C(O)c1ccc(SC(C)C)cc1 (centres undefined) [SULOCTIDIL] | Not Active | 
O=c1[nH]c(=O)n(C2CCCO2)cc1F (centres undefined) [TEGAFUR] | Not Active | 
CC(=N)S [THIOACETAMIDE] | Not Active | 
Cc1ccc(C(=O)c2ccc(CC(=O)O)n2C)cc1 [TOLMETIN] | Not Active | 
CC(=O)OCC(COC(C)=O)OC(C)=O [TRIACETIN] | Not Active | 
CN1CCN(CCCN2c3ccccc3Sc3ccc(C(F)(F)F)cc32)CC1 [TRIFLUOPERAZINE] | Not Active | 
TRANSPLATIN | Not Active | Not Active
ZIRCONIUM(IV) CHLORIDE | Not Active | Not Active

What follows are compounds tested against Carbonic anhydrase 2 (Homo sapiens, UniProt P00918) (assay: DRUGMATRIX: Carbonic Anhydrase II enzyme inhibition (substrate: 4-Nitrophenyl acetate (4-NPA))). Conditions: erythrocyte; Not Active = under 50% inhibition at 10 µM.
Type: tissue-based, Erythrocyte

Compound | IC50 | Ki
O=C1C[C@@H]2OCC=C3CN4CC[C@]56c7ccccc7N1[C@H]5[C@H]2[C@H]3C[C@H]46 [STRYCHNINE] | Not Active | 
C[N+](C)(C)CCOC(=O)CCC(=O)OCC[N+](C)(C)C.[Cl-].[Cl-] [SUCCINYLCHOLINE CHLORIDE] | Not Active | 
Nc1ccc(S(=O)(=O)NC(=O)c2ccccc2)cc1 [SULFABENZAMIDE] | Not Active | 
CCCCCCCCNC(C)C(O)c1ccc(SC(C)C)cc1 (centres undefined) [SULOCTIDIL] | Not Active | 
O=c1[nH]c(=O)n(C2CCCO2)cc1F (centres undefined) [TEGAFUR] | Not Active | 
CC(=N)S [THIOACETAMIDE] | Not Active | 
Cc1ccc(C(=O)c2ccc(CC(=O)O)n2C)cc1 [TOLMETIN] | Not Active | 
CC(=O)OCC(COC(C)=O)OC(C)=O [TRIACETIN] | Not Active | 
CN1CCN(CCCN2c3ccccc3Sc3ccc(C(F)(F)F)cc32)CC1 [TRIFLUOPERAZINE] | Not Active | 
TRANSPLATIN | Not Active | Not Active
ZIRCONIUM(IV) CHLORIDE | Not Active | Not Active

The compounds below were run against Histamine H2 receptor (Homo sapiens, UniProt P25021). Conditions: cho-k1.
Type: cell membranes, CHO-K1, Membrane

Sequence of Histamine H2 receptor (P25021 whole entry): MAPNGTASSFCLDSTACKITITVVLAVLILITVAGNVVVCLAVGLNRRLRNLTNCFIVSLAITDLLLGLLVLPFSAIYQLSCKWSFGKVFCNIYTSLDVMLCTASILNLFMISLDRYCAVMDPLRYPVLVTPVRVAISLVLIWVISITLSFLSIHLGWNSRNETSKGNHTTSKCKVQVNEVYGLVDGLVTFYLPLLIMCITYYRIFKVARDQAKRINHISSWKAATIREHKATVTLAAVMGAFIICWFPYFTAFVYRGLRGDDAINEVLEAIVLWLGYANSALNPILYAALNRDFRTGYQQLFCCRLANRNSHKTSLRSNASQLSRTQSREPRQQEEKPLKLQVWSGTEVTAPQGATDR

Compound | IC50 | Ki
O=C1C[C@@H]2OCC=C3CN4CC[C@]56c7ccccc7N1[C@H]5[C@H]2[C@H]3C[C@H]46 [STRYCHNINE] | Not Active | 
C[N+](C)(C)CCOC(=O)CCC(=O)OCC[N+](C)(C)C.[Cl-].[Cl-] [SUCCINYLCHOLINE CHLORIDE] | Not Active | 
Nc1ccc(S(=O)(=O)NC(=O)c2ccccc2)cc1 [SULFABENZAMIDE] | Not Active | 
O=c1[nH]c(=O)n(C2CCCO2)cc1F (centres undefined) [TEGAFUR] | Not Active | 
CC(=N)S [THIOACETAMIDE] | Not Active | 
Cc1ccc(C(=O)c2ccc(CC(=O)O)n2C)cc1 [TOLMETIN] | Not Active | 
CC(=O)OCC(COC(C)=O)OC(C)=O [TRIACETIN] | Not Active | 
CN1CCN(CCCN2c3ccccc3Sc3ccc(C(F)(F)F)cc32)CC1 [TRIFLUOPERAZINE] | Not Active | 
TRANSPLATIN | Not Active | Not Active
ZIRCONIUM(IV) CHLORIDE | Not Active | Not Active

Same assay, conditions: read-out: IC50

Compound | IC50 [nM]
CCCCCCCCNC(C)C(O)c1ccc(SC(C)C)cc1 (centres undefined) [SULOCTIDIL] | 108

Same assay, conditions: read-out: Ki

Compound | Ki [nM]
CCCCCCCCNC(C)C(O)c1ccc(SC(C)C)cc1 (centres undefined) [SULOCTIDIL] | 88.5

The compounds below were run against T4, Angiotensin-converting enzyme (Oryctolagus cuniculus, UniProt P12822). Conditions: not given.
T4 sequence (P12822 whole entry): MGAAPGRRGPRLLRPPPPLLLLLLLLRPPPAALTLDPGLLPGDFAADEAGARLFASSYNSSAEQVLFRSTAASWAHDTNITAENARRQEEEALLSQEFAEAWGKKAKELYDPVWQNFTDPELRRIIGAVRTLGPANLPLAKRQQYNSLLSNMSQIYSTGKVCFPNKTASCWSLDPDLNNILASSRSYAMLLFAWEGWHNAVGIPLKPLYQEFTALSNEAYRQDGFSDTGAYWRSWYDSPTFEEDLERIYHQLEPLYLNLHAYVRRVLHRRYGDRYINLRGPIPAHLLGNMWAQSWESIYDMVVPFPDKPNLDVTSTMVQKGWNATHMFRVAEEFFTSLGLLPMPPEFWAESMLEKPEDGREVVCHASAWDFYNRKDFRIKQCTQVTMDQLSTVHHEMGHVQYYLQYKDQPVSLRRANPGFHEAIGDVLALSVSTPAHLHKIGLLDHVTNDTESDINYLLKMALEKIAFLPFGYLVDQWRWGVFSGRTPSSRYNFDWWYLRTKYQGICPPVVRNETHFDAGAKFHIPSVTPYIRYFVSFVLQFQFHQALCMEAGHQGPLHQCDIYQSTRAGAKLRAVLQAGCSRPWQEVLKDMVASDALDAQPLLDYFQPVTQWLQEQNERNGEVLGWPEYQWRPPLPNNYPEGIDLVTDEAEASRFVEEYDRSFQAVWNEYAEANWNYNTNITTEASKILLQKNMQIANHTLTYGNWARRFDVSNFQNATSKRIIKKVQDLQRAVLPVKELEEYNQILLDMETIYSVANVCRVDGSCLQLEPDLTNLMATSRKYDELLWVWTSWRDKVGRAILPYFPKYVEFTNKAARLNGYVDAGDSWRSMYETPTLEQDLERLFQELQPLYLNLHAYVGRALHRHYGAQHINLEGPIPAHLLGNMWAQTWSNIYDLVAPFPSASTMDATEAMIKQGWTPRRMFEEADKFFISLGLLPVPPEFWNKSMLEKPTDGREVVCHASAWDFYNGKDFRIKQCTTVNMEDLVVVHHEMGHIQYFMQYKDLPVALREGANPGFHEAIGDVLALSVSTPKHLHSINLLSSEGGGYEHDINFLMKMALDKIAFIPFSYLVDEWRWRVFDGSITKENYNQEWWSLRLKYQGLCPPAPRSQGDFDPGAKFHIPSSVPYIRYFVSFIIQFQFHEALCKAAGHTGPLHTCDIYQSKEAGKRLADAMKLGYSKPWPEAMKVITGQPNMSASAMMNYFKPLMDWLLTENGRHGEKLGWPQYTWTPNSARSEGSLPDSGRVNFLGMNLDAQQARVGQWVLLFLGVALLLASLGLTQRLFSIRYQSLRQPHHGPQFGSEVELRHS
Type: tissue-based, Lung

Compound | IC50 | Ki
O=C1C[C@@H]2OCC=C3CN4CC[C@]56c7ccccc7N1[C@H]5[C@H]2[C@H]3C[C@H]46 [STRYCHNINE] | Not Active | 
C[N+](C)(C)CCOC(=O)CCC(=O)OCC[N+](C)(C)C.[Cl-].[Cl-] [SUCCINYLCHOLINE CHLORIDE] | Not Active | 
Nc1ccc(S(=O)(=O)NC(=O)c2ccccc2)cc1 [SULFABENZAMIDE] | Not Active | 
CCCCCCCCNC(C)C(O)c1ccc(SC(C)C)cc1 (centres undefined) [SULOCTIDIL] | Not Active | 
O=c1[nH]c(=O)n(C2CCCO2)cc1F (centres undefined) [TEGAFUR] | Not Active | 
CC(=N)S [THIOACETAMIDE] | Not Active | 
Cc1ccc(C(=O)c2ccc(CC(=O)O)n2C)cc1 [TOLMETIN] | Not Active | 
CC(=O)OCC(COC(C)=O)OC(C)=O [TRIACETIN] | Not Active | 
CN1CCN(CCCN2c3ccccc3Sc3ccc(C(F)(F)F)cc32)CC1 [TRIFLUOPERAZINE] | Not Active | 
TRANSPLATIN | Not Active | Not Active
ZIRCONIUM(IV) CHLORIDE | Not Active | Not Active
